According to patent US20140357860A1, “SALT OF IVABRADINE WITH ADIPIC ACID” (ratiopharm GmbH, priority 2010, published 2014):
Where a name gives a salt, the structure may show the parent alone. Blank lines part the entries; values can stand above or below the molecule they belong to.

Key:
[1] = Stability of the solid form on storage at different temperatures and humidities, open or closed containers; type: physicochemical; conditions: for Stability, summary in words: various conditions of temperature, humidity and container
Excerpt: The stability of ivabradine adipate in comparison to ivabradine hydrochloride form I was investigated at different temperatures and humidities in open or closed containers for different storage times.

[2] = under physiological conditions; cited from earlier work

Stability (solid form after storage) ([1]; 25° C./60% closed, 33 d): unchanged
Stability (solid form after storage) ([1]; 25° C./60% open, 33 d): β + unident.
Stability (solid form after storage) ([1]; 30° C./65% closed, 33 d): unchanged
Stability (solid form after storage) ([1]; 30° C./65% open, 33 d): β
Stability (solid form after storage) ([1]; 40° C./75% closed, 33 d): unchanged
Stability (solid form after storage) ([1]; 40° C./75% open, 33 d): β
SMILES: COc1cc2c(cc1OC)CC(=O)N(CCCN(C)C[C@H]1Cc3cc(OC)c(OC)cc31)CC2 [Ivabradine HCl form I, Ivabradine HCl]
Stability, summary in words ([1]; HCl): undergoes phase transition into Ivabradine HCl, form beta

Stability (solid form after storage) ([1]; 25° C./60% closed, 57 d): unchanged
Stability (solid form after storage) ([1]; 25° C./60% open, 57 d): unchanged
Stability (solid form after storage) ([1]; 30° C./65% closed, 57 d): unchanged
Stability (solid form after storage) ([1]; 30° C./65% open, 57 d): unchanged
Stability (solid form after storage) ([1]; 40° C./75% closed, 57 d): unchanged
Stability (solid form after storage) ([1]; 40° C./75% open, 57 d): unchanged
Stability, summary in words [1]: stable
SMILES: COc1cc2c(cc1OC)CC(=O)N(CCCN(C)C[C@H]1Cc3cc(OC)c(OC)cc31)CC2 [Ivabradine adipate, Ivabradine Adipate]

SMILES: COc1cc2c(cc1OC)CC(=O)N(CCCN(C)C[C@H]1Cc3cc(OC)c(OC)cc31)CC2 [Ivabradine, (S)-3-{3-[(3,4-dimethoxybicyclo[4.2.0]octa-1,3,5-trien-7-ylmethyl)methylamino]propyl}-7,8-dimethoxy-2,3,4,5-tetrahydro-1H-3-benzazepin-2-one]
water solubility [2]: > 10000 µg/mL
